According to PubChem BioAssay AID248 (DTP/NCI, 2004):
Where “and” joins values, the source holds several entries; their conditions need not be identical. Equal entries are not always repeated. Inconclusive results and toxic doses are left out. Cut-off read from the data, not from the text of the source: active = T/C of 150% or more; inactive = T/C below 125%.

Test system: L1210 leukemia ip in BDF1 mice, survival T/C
Test: NCI In Vivo Anticancer Drug Screen. Data for tumor model L1210 Leukemia (intraperitoneal) in B6D2F1 (BDF1) mice
Details: endpoint: mean survival time, higher = longer survival
Procedure, shortened: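 Each compound was tested against a transplantable tumor grown in mice. The endpoint was survival, with treated animals benchmarked against vehicle controls as a simple ratio.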

[1] = dose: 100.0 mg/kg/injection, schedule: Q01DX009 (ip), vehicle: Klucel (hydroxypropylcellulose) (HPC)
[2] = dose: 200.0 mg/kg/injection, schedule: Q01DX009 (ip), vehicle: Klucel (hydroxypropylcellulose) (HPC)
[3] = dose: 400.0 mg/kg/injection, schedule: Q01DX009 (ip), vehicle: Klucel (hydroxypropylcellulose) (HPC)
[4] = dose: 100.0 mg/kg/injection, schedule: Q04DX002 (ip), vehicle: Klucel (hydroxypropylcellulose) (HPC)
[5] = dose: 200.0 mg/kg/injection, schedule: Q04DX002 (ip), vehicle: Klucel (hydroxypropylcellulose) (HPC)
[6] = dose: 400.0 mg/kg/injection, schedule: Q04DX002 (ip), vehicle: Klucel (hydroxypropylcellulose) (HPC)
[7] = dose: 100.0 mg/kg/injection, schedule: Q01DX001 (ip), vehicle: other
[8] = dose: 100.0 mg/kg/injection, schedule: Q01DX001 (ip), vehicle: saline
[9] = dose: 200.0 mg/kg/injection, schedule: Q01DX001 (ip), vehicle: saline
[10] = dose: 400.0 mg/kg/injection, schedule: Q01DX001 (ip), vehicle: saline

Measured: T/C

O=[N+]([O-])c1ccc(Oc2ccc[n+]([O-])c2)nc1
inactive: [1] 103 % of control | dose: 100.0 mg/kg/injection, schedule: Q04DX003 (ip), vehicle: Klucel (hydroxypropylcellulose) (HPC) 93 % of control | [2] 101 % of control | dose: 200.0 mg/kg/injection, schedule: Q04DX003 (ip), vehicle: Klucel (hydroxypropylcellulose) (HPC) 96 % of control | [3] 98 % of control | dose: 400.0 mg/kg/injection, schedule: Q04DX003 (ip), vehicle: Klucel (hydroxypropylcellulose) (HPC) 95 % of control

COc1ccc(C(=O)Nc2ccccc2)cc1NC(=O)Nc1ccccc1C(F)(F)F
inactive: [1] 92 % of control | [2] 101 % of control | [3] 95 % of control

OC1/C(=C/c2ccccc2)c2cccc3cccc1c23 (stereo not given)
inactive: dose: 50.0 mg/kg/injection, schedule: Q01DX009 (ip), vehicle: saline with Tween-80 90 % of control | dose: 100.0 mg/kg/injection, schedule: Q01DX009 (ip), vehicle: saline with Tween-80 93 % of control | dose: 200.0 mg/kg/injection, schedule: Q01DX009 (ip), vehicle: saline with Tween-80 93 % of control

ClCCCCCCCCCCc1ccccc1
inactive: dose: 100.0 mg/kg/injection, schedule: Q01DX009 (ip), vehicle: saline sonified 91 % of control | dose: 100.0 mg/kg/injection, schedule: Q04DX003 (ip), vehicle: saline sonified 96 % of control | dose: 200.0 mg/kg/injection, schedule: Q01DX009 (ip), vehicle: saline sonified 93 % of control | dose: 200.0 mg/kg/injection, schedule: Q04DX003 (ip), vehicle: saline sonified 102 % of control | dose: 400.0 mg/kg/injection, schedule: Q01DX009 (ip), vehicle: saline sonified 89 % of control | dose: 400.0 mg/kg/injection, schedule: Q04DX003 (ip), vehicle: saline sonified 98 % of control

OC(Cc1ccncc1)(c1ccccc1)c1ccccc1
inactive: dose: 100.0 mg/kg/injection, schedule: Q04DX003 (ip), vehicle: saline with Tween-80 88 % of control | dose: 200.0 mg/kg/injection, schedule: Q04DX003 (ip), vehicle: saline with Tween-80 88 % of control | dose: 400.0 mg/kg/injection, schedule: Q04DX003 (ip), vehicle: saline with Tween-80 109 % of control

NCCCCCCCCCCC(=O)O
inactive: [4] 115 % of control | [5] 95 % of control | [6] 101 % of control

S=c1[nH]c(-c2ccccc2)cs1
inactive: dose: 50.0 mg/kg/injection, schedule: Q01DX001 (ip), vehicle: other 90 % of control | dose: 100.0 mg/kg/injection, schedule: Q01DX001 (ip), vehicle: Klucel (hydroxypropylcellulose) (HPC) 96 % of control | [7] 96 % of control | [1] 96 % of control | dose: 200.0 mg/kg/injection, schedule: Q01DX001 (ip), vehicle: Klucel (hydroxypropylcellulose) (HPC) 95 % of control | dose: 200.0 mg/kg/injection, schedule: Q01DX001 (ip), vehicle: other 100 % of control | [2] 96 % of control | dose: 400.0 mg/kg/injection, schedule: Q01DX001 (ip), vehicle: Klucel (hydroxypropylcellulose) (HPC) 95 % of control | dose: 400.0 mg/kg/injection, schedule: Q01DX001 (ip), vehicle: other 96 % of control | [3] 97 % of control

CC1=C(/C=C/C(C)=N/NC(N)=O)C(C)(C)CCC1
inactive: dose: 100.0 mg/kg/injection, schedule: Q01DX009 (ip), vehicle: saline 100 % of control | dose: 100.0 mg/kg/injection, schedule: Q04DX003 (ip), vehicle: saline 94 % of control | dose: 200.0 mg/kg/injection, schedule: Q01DX009 (ip), vehicle: saline 100 % of control | dose: 200.0 mg/kg/injection, schedule: Q04DX003 (ip), vehicle: saline 102 % of control | dose: 400.0 mg/kg/injection, schedule: Q04DX003 (ip), vehicle: saline 96 % of control

CC(C)(C)c1ccccc1OC(=O)Nc1ccc(F)cc1
inactive: dose: 100.0 mg/kg/injection, schedule: Q01DX001 (ip), vehicle: carboxymethylcellulose (CMC) 98 % of control | dose: 100.0 mg/kg/injection, schedule: Q01DX009 (ip), vehicle: carboxymethylcellulose (CMC) 95 % of control and 97 % of control | dose: 100.0 mg/kg/injection, schedule: Q04DX002 (ip), vehicle: carboxymethylcellulose (CMC) 94 % of control and 96 % of control and 106 % of control | dose: 100.0 mg/kg/injection, schedule: Q04DX003 (ip), vehicle: carboxymethylcellulose (CMC) 97 % of control | dose: 200.0 mg/kg/injection, schedule: Q01DX001 (ip), vehicle: carboxymethylcellulose (CMC) 104 % of control | dose: 200.0 mg/kg/injection, schedule: Q01DX009 (ip), vehicle: carboxymethylcellulose (CMC) 105 % of control | dose: 200.0 mg/kg/injection, schedule: Q04DX002 (ip), vehicle: carboxymethylcellulose (CMC) 97 % of control and 98 % of control (2×) | dose: 200.0 mg/kg/injection, schedule: Q04DX003 (ip), vehicle: carboxymethylcellulose (CMC) 97 % of control | dose: 400.0 mg/kg/injection, schedule: Q01DX001 (ip), vehicle: carboxymethylcellulose (CMC) 101 % of control | dose: 400.0 mg/kg/injection, schedule: Q01DX009 (ip), vehicle: carboxymethylcellulose (CMC) 103 % of control | dose: 400.0 mg/kg/injection, schedule: Q04DX002 (ip), vehicle: carboxymethylcellulose (CMC) 92 % of control and 94 % of control and 98 % of control | dose: 400.0 mg/kg/injection, schedule: Q04DX003 (ip), vehicle: carboxymethylcellulose (CMC) 91 % of control

CC(C)(C)[C]1=Nc2cccc[c]2[Ge]1([CH3])[CH3]
inactive: dose: 100.0 mg/kg/injection, schedule: Q04DX002 (ip), vehicle: saline with Tween-80 108 % of control | dose: 200.0 mg/kg/injection, schedule: Q04DX002 (ip), vehicle: saline with Tween-80 93 % of control | dose: 400.0 mg/kg/injection, schedule: Q04DX002 (ip), vehicle: saline with Tween-80 97 % of control

Cc1ccc(NC(=O)c2ccccc2-c2ccccc2C(=O)Nc2ccc(C)cc2)cc1
inactive: [7] 91 % of control

Cn1c(=O)c2[nH]c(-c3ccc([N+](=O)[O-])cc3)nc2n(C)c1=O
inactive: dose: 50.0 mg/kg/injection, schedule: Q01DX001 (ip), vehicle: saline 98 % of control | [8] 93 % of control | [9] 96 % of control | [10] 93 % of control

c1ccc2c(c1)ccc1oc3ccccc3c12
inactive: [8] 101 % of control | [9] 95 % of control | [10] 98 % of control

CCOC(=O)C(=CNc1cc(NC(C)=O)nc(SC)n1)C(=O)OCC
inactive: [4] 96 % of control | [5] 103 % of control | [6] 96 % of control
